According to patent US20110142829A1, “ANTI-TUMOUR COMPOSITIONS AND METHODS” (priority 2008, published 2011):
Like-named read-outs stand apart in the source and are kept apart here.

Key:
[1] = tested on: A549 lung cancer cells; details: for Tumour Growth Inhibition (TGI): A549 tumours in nude mice, cisplatin 5 mg/kg; for Tumour Growth Inhibition (TGI) / mean tumour volume on day 21: oltipraz 100 mg/kg; for mean tumour volume on day 1: day 1 (initiation of treatment); for mean tumour volume on day 21: cisplatin 5 mg/kg day 2, vehicle control 536 mm^3
[2] = oltipraz 100 mg/kg po days 1, 3, 8, 10, given with Cetuximab
[3] = formulated with CMC

| Structure (SMILES) | Tumour Growth Inhibition (TGI) [1] | mean tumour volume on day 1 [1] | mean tumour volume on day 21 [1] | average weight gain, % of starting weight by day 21 (female nude mice with A549 tumours, cisplatin 5 mg/kg sc day 2, oltipraz 100 mg/kg po (alone days 1, 3, 8, 10; combination days 1 and 3), day 21) | toxicity based on observations of survival and weight change (oltipraz alone 100 mg/kg po days 1, 3, 8, 10) | toxicity based on observations of survival and weight change [2] | amount that can be administered without significant toxicity resulting [3] |
| --- | --- | --- | --- | --- | --- | --- | --- |
| N.N.[Cl][Pt][Cl] [cisplatin, cis-diamminedichloridoplatinum(II)] | 48.8% | 93 mm^3 | 275 mm^3 |  |  |  |  |
| Cc1c(-c2cnccn2)ssc1=S [oltipraz, 4-methyl-5(2-pyrazinyl)-3H-1,2-dithiole-3-thione] | 62.3% | 93 mm^3 | 200 mm^3 | 4.9% | no evidence of toxicity | no evidence of toxicity | up to 2000 mg/kg |
